Measured values reported in ChEMBL document CHEMBL1201862, “PubChem BioAssay data set” (2004).
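Interpolation was linear, between the two tested concentrations surrounding the appropriate level; five concentrations were tested over 48 hours in 96-well plates. GI50 marks 50% less growth.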 Calls of active or inactive are those of the source. Cut-off read from the data, not from the text of the source: active = GI50 up to about 1.1 µM and inactive = higher.

Columns and labels:
Test in all cases: inhibition of tumour cell growth, NCI panel, 48 h
A498 = tested on: A498
CAKI-1 = tested on: CAKI-1
DU-145 = tested on: DU-145
HCC 2998 = tested on: HCC 2998
HL-60 = tested on: HL-60
HOP-92 = tested on: HOP-92
Hs-578T = tested on: Hs-578T
MCF7 = tested on: MCF7
MDA-MB-231 = tested on: MDA-MB-231
MDA-MB-435 = tested on: MDA-MB-435
MDA-N = tested on: MDA-N
NCI-H522 = tested on: NCI-H522
NCI/ADR-RES = tested on: NCI/ADR-RES
PC-3 = tested on: PC-3
RXF 393 = tested on: RXF 393
SK-OV-3 = tested on: SK-OV-3
SR = tested on: SR
786-0 = tested on: 786-0
SNB-75 = tested on: SNB-75

Row | SMILES | GI50 (A498) | GI50 (CAKI-1) | GI50 (DU-145) | GI50 (HCC 2998) | GI50 (HL-60) | GI50 (HOP-92) | GI50 (Hs-578T) | GI50 (MCF7) | GI50 (MDA-MB-231) | GI50 (MDA-MB-435) | GI50 (MDA-N) | GI50 (NCI-H522) | GI50 (NCI/ADR-RES) | GI50 (PC-3) | GI50 (RXF 393) | GI50 (SK-OV-3) | GI50 (SR) | GI50 (786-0) | GI50 (SNB-75)
1 | CCOC(=O)c1nc2ccccc2n(CC)c1=O | > 100 µM (inactive) | > 100 µM (inactive) | > 100 µM (inactive) | > 100 µM (inactive) | > 100 µM (inactive) | > 100 µM (inactive) | > 100 µM (inactive) | > 100 µM (inactive) | > 100 µM (inactive) | > 100 µM (inactive) | > 100 µM (inactive) | > 100 µM (inactive) | > 100 µM (inactive) | > 100 µM (inactive) | > 100 µM (inactive) | > 100 µM (inactive) | > 100 µM (inactive) |  | 
2 | O=c1cc(NNc2ccccc2)[nH]c(=O)[nH]1 | > 100 µM (inactive) |  | > 100 µM (inactive) | 19.9 µM (inactive) | 18.2 µM (inactive) |  | 80.7 µM (inactive) | 12.9 µM (inactive) | 15.8 µM (inactive) | 19 µM (inactive) | 20.2 µM (inactive) | 20.5 µM (inactive) | 22.8 µM (inactive) | 21.9 µM (inactive) |  | > 100 µM (inactive) | 28.2 µM (inactive) | 15.8 µM (inactive) | 
3 | O=c1oc2ccccc2cc1-c1cn2cc(Cl)ccc2n1 |  | 0.422 µM (active) | 5.57 µM (inactive) | 1.13 µM (inactive) | 2.59 µM (inactive) | 5.45 µM (inactive) | 1.23 µM (inactive) | 0.435 µM (active) | 3.01 µM (inactive) | 0.0434 µM (active) | 0.0881 µM (active) | 0.104 µM (active) | 0.345 µM (active) | 1.93 µM (inactive) | 2.28 µM (inactive) | 0.773 µM (active) | 0.0687 µM (active) | 1 µM (active) | 1.76 µM (inactive)
4 | CC(=O)OCCCCn1cnc2c(Cl)nc(Nc3ccccc3)nc21 | > 100 µM (inactive) | 18.7 µM (inactive) | > 100 µM (inactive) | 42.9 µM (inactive) | > 100 µM (inactive) |  | > 100 µM (inactive) | > 100 µM (inactive) | > 100 µM (inactive) | > 100 µM (inactive) | > 100 µM (inactive) | 16.5 µM (inactive) | > 100 µM (inactive) | > 100 µM (inactive) |  |  | > 100 µM (inactive) | > 100 µM (inactive) | 
5 | Cc1ncc([N+](=O)[O-])n1CC[N+](C)([O-])CCCCn1ccnc1[N+](=O)[O-] (configuration not stated) | > 100 µM (inactive) | > 100 µM (inactive) | > 100 µM (inactive) |  | > 100 µM (inactive) |  | > 100 µM (inactive) | > 100 µM (inactive) | > 100 µM (inactive) | > 100 µM (inactive) | > 100 µM (inactive) | > 100 µM (inactive) | > 100 µM (inactive) | > 100 µM (inactive) | > 100 µM (inactive) | > 100 µM (inactive) | > 100 µM (inactive) | > 100 µM (inactive) | > 100 µM (inactive)
6 | Cc1ccc([N+](=O)[O-])cc1S(=O)(=O)Nc1ccc(C2=NN(c3ccc([N+](=O)[O-])cc3[N+](=O)[O-])C(c3ccccc3)C2)cc1 (configuration not stated) |  | 22.8 µM (inactive) | 17.9 µM (inactive) |  | 20.3 µM (inactive) | 14.8 µM (inactive) | 21.9 µM (inactive) | 12.2 µM (inactive) | 14.9 µM (inactive) | 19.3 µM (inactive) | 16 µM (inactive) | 10.1 µM (inactive) | 18.4 µM (inactive) | 14.3 µM (inactive) | 14.8 µM (inactive) | 21 µM (inactive) | 22.4 µM (inactive) | 15.4 µM (inactive) | 22.5 µM (inactive)
7 | N#Cc1c(Nc2ccc(F)cc2)[n+]([O-])c2ccc(Cl)cc2[n+]1[O-] | 2.88 µM (inactive) | 3.18 µM (inactive) | 11.8 µM (inactive) |  |  | 2.14 µM (inactive) | 38.3 µM (inactive) | 2.11 µM (inactive) | 2.66 µM (inactive) | 4.04 µM (inactive) | 6.73 µM (inactive) |  | 1.9 µM (inactive) | 4.81 µM (inactive) | 4.36 µM (inactive) | 4.06 µM (inactive) | 1.57 µM (inactive) | 3.34 µM (inactive) | 17.7 µM (inactive)
8 | Oc1ccccc1C1C=C(c2ccccc2)NC(N2CCCCC2)=C1c1nc2ccccc2[nH]1 (configuration not stated) |  |  | 24.2 µM (inactive) | 3.08 µM (inactive) | 14.2 µM (inactive) | 13.7 µM (inactive) | 13.4 µM (inactive) | 12.1 µM (inactive) | 11.9 µM (inactive) | 15.6 µM (inactive) | 13.5 µM (inactive) | 14 µM (inactive) | 15.8 µM (inactive) | 11.8 µM (inactive) | 11.4 µM (inactive) | 13.5 µM (inactive) | 12.4 µM (inactive) | 12.7 µM (inactive) | 4.57 µM (inactive)
